Consider eleven molecules from patent publication US9365506B2, “Compounds and compositions as TLR2 agonists” (NOVARTIS AG, priority 2010, dated 2016).

A short description of data set [1]: Evaluation of % alum binding at pH 6.5 (HPLC-MS/MS of supernatant). The class given is physicochemical. The conditions noted are these: 1 mg/mL formulation with aluminum hydroxide adjuvant in Histidine buffer, stirred at 25° C. overnight, control without aluminum hydroxide. On the procedure:
Evaluation of % Alum Binding
The binding of certain compounds of Formula (I) to aluminum-containing adjuvants at pH 6.5 was evaluated using HPLC-MS/MS to monitor the presence of the compound of Formula (I) in the supernatant.
Evaluation of Binding at pH 6.5
To a mixture of compound (4 mg/mL) in Endotox free water was added 1 M NaOH (2.1 eq) to achieve a clear solution. A mixture of the resulting solution (0.5 mL), Endotox free water (0.86 mL), 100 mM Histidine buffer (0.2 mL) and aluminum hydroxide adjuvant (13.78 mg/mL, 0.44 mL) was stirred at 25° C. overnight to result in a 1 mg/mL formulation. An additional 1 mg/mL formulation was prepared as control in 10 mM Histidine buffer without aluminum hydroxide.
Three 50 uL aliquots of each formulation (in Histidine buffer with and without aluminum hydroxide) were centrifuged at 14,000 rpm for 10 minutes at 4° C. The supernatant was diluted, treated with an internal standard and analyzed by HPLC-MS/MS using a ballistic gradient (from 50% CH3CN-1.0% NH4OH to 95% CH3CN-1.0% NH4OH in 1.5 minutes) on a C8 ([…]×2.1 mm) Waters XBridge column at ambient temperature. The supernatant concentration was determined for each formulation. The fraction in the aluminum hydroxide formulation bound to alum was calculated as follows: […]

Data set [2] addresses human TLR2 (Homo sapiens, UniProt O60603). Briefly: Reporter gene assay: HEK 293 cells stably transfected with human TLR2 and NF-kB-driven luciferase reporter. The conditions noted are these: for Emax: HEK293, 7 h, read-out: Hek-TLR2 (% Eff); for EC50: Hek-TLR2 μM (EC50), HEK 293 stably transfected with human TLR2 and pNifty-Luciferase, 7 hours incubation, concentration giving 50% of maximal signal. A general note: Reporter assays use an easily measured gene product as a stand-in for the process of interest.
Experimental: As a control assay, normal Hek293 transfected with pNifty-Luc were used. […] Bright-Glo™ Luciferase assay buffer and substrate were supplied by Promega #E263B and #E264B (assay substrate and buffer respectively). 384 well clear-bottom plates were supplied by Greiner bio-one (#789163-G) and were custom bar-coded plates.
Cells were plated at 25,000 cells/well in 384-well plates in a final volume of 50 μl of media. Cells were allowed to adhere to the plates after overnight (18 hours) culture at 37° C. and 5% CO2. Serially diluted experimental and positive control compounds were then dispensed to each well and incubated for 7 hours at 37° C. and 5% CO2. Cells stimulated with DMSO alone also serve as negative controls. After the incubation, 30 μl of the pre-mix assay buffer and substrate buffer were added to each well according to manufacturer's instructions. The luminescence signal was read on a CLIPR machine with an integration time of 20 seconds per plate.

One may read the EC50 as the midpoint of the concentration-response curve.

The structures appear in SMILES notation.

Sequence of human TLR2 (O60603 21-784): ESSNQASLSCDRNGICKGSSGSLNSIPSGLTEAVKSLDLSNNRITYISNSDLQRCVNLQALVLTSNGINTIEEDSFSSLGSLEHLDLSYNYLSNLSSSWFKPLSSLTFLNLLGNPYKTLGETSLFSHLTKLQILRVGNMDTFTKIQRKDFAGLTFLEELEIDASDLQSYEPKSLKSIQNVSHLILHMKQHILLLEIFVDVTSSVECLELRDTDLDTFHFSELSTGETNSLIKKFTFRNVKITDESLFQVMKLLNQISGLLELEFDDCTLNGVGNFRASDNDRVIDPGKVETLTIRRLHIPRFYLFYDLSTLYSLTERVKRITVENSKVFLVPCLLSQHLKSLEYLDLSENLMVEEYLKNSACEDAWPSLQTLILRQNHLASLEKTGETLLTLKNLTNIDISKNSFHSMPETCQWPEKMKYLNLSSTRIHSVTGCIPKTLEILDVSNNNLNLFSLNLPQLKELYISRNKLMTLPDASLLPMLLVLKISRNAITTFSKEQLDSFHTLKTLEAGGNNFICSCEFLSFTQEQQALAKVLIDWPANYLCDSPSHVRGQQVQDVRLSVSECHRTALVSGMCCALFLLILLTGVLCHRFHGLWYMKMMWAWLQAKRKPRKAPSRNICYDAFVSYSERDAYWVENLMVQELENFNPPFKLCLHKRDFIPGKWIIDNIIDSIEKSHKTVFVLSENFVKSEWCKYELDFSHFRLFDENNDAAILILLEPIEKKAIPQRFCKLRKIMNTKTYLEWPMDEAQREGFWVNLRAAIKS

Consider `CCCCCCCCCCCC(=O)OC[C@H](CSC[C@H](N)C(=O)NCCOCCOCCP(=O)(O)O)OC(=O)CCCCCCCCCCC` [Example 5, (11R,15R)-11-amino-15-(dodecanoyloxy)-10,18-dioxo-3,6,17-trioxa-13-thia-9-azanonacosylphosphonic acid], for which the “Alum Binding %” value in data set [1] was over 80%.

`CCCCCCCCCCCC(=O)OC[C@H](CSC[C@H](N)C(=O)NCCCC(F)(F)P(=O)(O)O)OC(=O)CCCCCCCCCCC` [Example 19, 4-((R)-2-amino-3-((R)-2,3-bis(dodecanoyloxy)propylthio)propanamido)-1,1-difluorobutylphosphonic acid]: the “Alum Binding %” value in data set [1] is recorded as over 80%.

For `CCCCCCCCCCCC(=O)OC[C@H](CSC[C@H](N)C(=O)NCCOCCP(=O)(O)O)OC(=O)CCCCCCCCCCC` [Example 3, (8R,12R)-8-amino-12-(dodecanoyloxy)-7,15-dioxo-3,14-dioxa-10-thia-6-azahexacosylphosphonic acid], the “Alum Binding %” value in data set [1] is recorded as over 80%. Besides, in data set [2], the Emax came out at 103% and the EC50 came out at 119 nM.

Regarding `CCCCCCCCCCCCOC[C@H](CSC[C@H](N)C(=O)NCCOCCOCCOCCP(=O)(O)O)OCCCCCCCCCCCC` [Example 20, (14R,18R)-14-amino-18-(dodecyloxy)-13-oxo-3,6,9,20-tetraoxa-16-thia-12-azadotriacontylphosphonic acid], in data set [1], the “Alum Binding %” value is listed as over 80%. Moreover, in data set [2], the Emax worked out at 84% and the EC50 stood at 552 nM.

On to `CCCCCCCCCCCCOC[C@H](CSC[C@H](N)C(=O)NCCOCCOCCOCCP(=O)(O)O)NC(=O)CCCCCCCCCCC` [Example 26, ((14R,18R)-14-amino-18-dodecanamido-13-oxo-3,6,9,20-tetraoxa-16-thia-12-azadotriacontyl)phosphonic acid], for which the “Alum Binding %” value in data set [1] is on record as over 80%. Further, in data set [2], the Emax worked out at 28% and the midpoint of the response, the EC50, lay at 1750 nM.

On to `CCCCCCCCCCCC(=O)OC[C@H](CSC[C@H](N)C(=O)NC1(COCCCP(=O)(O)O)CC1)OC(=O)CCCCCCCCCCC` [Example 15, 3-((1-((R)-2-amino-3-((R)-2,3-bis(dodecanoyloxy)propylthio)propanamido)cyclopropyl)methoxy)propylphosphonic acid], for which, in data set [1], the “Alum Binding %” value is over 80%.

For `CCCCCCCCCCCC(=O)OC[C@H](CSC[C@H](N)C(=O)NCCOCCOCCOCCP(=O)(O)O)OC(=O)CCCCCCCCCCC` [Example 18, (14R,18R)-14-amino-18-(dodecanoyloxy)-13,21-dioxo-3,6,9,20-tetraoxa-16-thia-12-azadotriacontylphosphonic acid], in data set [1], the “Alum Binding %” value was over 80%. Besides, in data set [2], the Emax was determined as 96% and the midpoint of the response, the EC50, lay at 270 nM.

With `CCCCCCCCCCCC(=O)OC[C@H](CSC[C@H](N)C(=O)NCCOCCC(F)(F)P(=O)(O)O)OC(=O)CCCCCCCCCCC` [Example 21, (9R,13R)-9-amino-13-(dodecanoyloxy)-1,1-difluoro-8,16-dioxo-4,15-dioxa-11-thia-7-azaheptacosylphosphonic acid], in data set [2], the Emax was 122% and the EC50 is 14 nM.

Regarding `CCCCCCCCCCCC(=O)OC[C@H](CSC[C@H](N)C(=O)NCCOCCOCCOCCOCCP(=O)(O)O)OC(=O)CCCCCCCCCCC` [Example 77, ((17R,21R)-17-amino-21-(dodecanoyloxy)-16,24-dioxo-3,6,9,12,23-pentaoxa-19-thia-15-azapentatriacontyl)phosphonic acid], in data set [2], the Emax was found to be 100% and the EC50 was 38 nM.

Take `CCCCCCCCCCCC(=O)OC[C@H](CSC[C@H](N)C(=O)NCCc1ccc(Oc2ccccc2)cc1)OC(=O)CCCCCCCCCCC` [Example 68, (R)-3-(((R)-2-amino-3-oxo-3-((4-phenoxyphenethyl)amino)propyl)thio)propane-1,2-diyl didodecanoate]: in data set [2], the Emax came out at 77% and the EC50 was found to be 4080 nM.

For the molecule `CCCCCCCCCCCCOC[C@H](CSC[C@H](N)C(=O)NCCOCCOCCOCCC(=O)O)NC(=O)CCCCCCCCCCC` [Example 33, (15R,19R)-15-amino-19-dodecanamido-14-oxo-4,7,10,21-tetraoxa-17-thia-13-azatritriacontan-1-oic acid], in data set [2], the Emax is 48% and the 50% effective concentration (EC50) was 3850 nM.
